Format in all cases: cell-based
Experiment [1] deals with rat vas deferens. Briefly: Effect on Rat Isolated Vas Deferens. The note with it: for minimal effective concentration: read-out: threshold conc.; for Emax: read-out: max. effect, % of NA max.; for effect on rat vas deferens (in words): noradrenaline-like activity. The source says: Effect on Rat Isolated Vas Deferens
Male albino rats weighing 250-350 g were anaesthetized with diethyl ether and then decapitated. The vas deferens was removed, freed from mesenteric attachments and then suspended in Kreb's bicarbonate solution (Hukovic, 1961). Threads were attached to both ends of the organ. The distal part was tied to a fixed pin in the organ bath and the proximal part to a force displacement transducer connected to a recording system. […] The load on the organ was adjusted to 0.5 g. The vas deferens was allowed to stabilize for 15 minutes before dose-response curves were obtained.
The technique for making cumulative dose-response curves in accordance with van Rossum (1963) was employed. The stimulating drug, noradrenaline (NA), was added to the bath in a manner to achieve geometrically increasing concentrations in the organ bath without washings in between. After each injection of NA the organ was allowed to contract until a state of equilibrium had been reached, and then the next dose of NA was added. This procedure was repeated until no further increase in contraction was obtained. The dosage of NA was adapted to give a concentration step in the bath of 1/2 log 10. The tested concentration interval was 10^-8 -10^-4 M, 3.10^-4 M plus maximum effect at 3 10^-5 and 10^-4 M. Compounds of formula I, identified as 2-12, and comparison compounds 13-15, were tested by the same technique. The compounds conform to the formula below except where indicated for other values of R^1, R^2 and R^3.

For experiment [2], the system named is urethra strip (cat). Briefly: Effect on urethra strip of cat. The note with it: Felis catus, isometric tension, Tyrode solution 37° C., pH 7.5. The method, then: (§1) Effect on urethra strip of cat and aortic strip of rabbit Adult male and female cats weighing 2-5 kg were used. The animals were anaesthetized with pentobarbital, 30-50 mg/kg intraperitoneally. An abdominal incision was made and the bladder and urethra were dissected free and cut. The bladder and urethra were placed in Tyrode solution of room temperature. Care was taken to keep the tissue moist during the preparation. The bladder was cut away and the urethra was cut longitudinally. Segments of 2-3 mm width were mounted in an organ-bath with Tyrode solution at 37° C. and connected to a strain gauge transducer so that the isometric tension could be recorded. The preparation was maintained at pH 7.5 by bubbling a mixture of 93.5 volume-% O2 and 6.5 volume-% CO2 through the solution. This experimental set up thus allowed the recording of circular muscle activity as isometric tension changes. The initial tension was set at approximately 0.5 g. After mounting, the preparation was allowed 1 hour for acclimatization before starting the experiment. All recordings were made from the base line. The drugs were added directly to the organ-baths and cumulative dose-response curves were recorded. Noradrenaline has consistently been used as a reference drug for agonistic action. The substances tested as agonists were noradrenaline bitartrate (NA) and the above compound No. 3. […]

Experiment [3] relates to aortic strip (rabbit). Briefly: Effect on aortic strip of rabbit. The following applies: Oryctolagus cuniculus. The procedure:
as §1

Setting [4] is: Rattus norvegicus, rat isolated vas deferens, cumulative dose-response, 31° C.
[5] abbreviates: rat isolated vas deferens, contraction relative to noradrenaline maximum.
The mark [6] stands for this setting: rat isolated vas deferens, cumulative dose-response, 31° C.

Like-named read-outs stand apart in the source and are kept apart here.

In the case of `NC[C@H](O)c1ccc(O)c(O)c1` [No. 1, noradrenaline, reference compound], the minimal effective concentration in experiment [1] (setting [4]) was determined as 1 µM. The Emax in experiment [1] (setting [5]) is 100%. Moreover, the EC50 was found to be 30 µM in experiment [1] (setting [6]), 27 µM in experiment [2] and 0.18 µM in experiment [3].

For “2-Isopropylamino-1-[spiro(cyclopentane-1,1'-indene)-3'-yl]ethanol [Example 12]”, the “max. effect, % of NA max.” value in experiment [1] (setting [5]) came to 35%.

Take `CNCCC1=CC2(CCCC2)c2ccccc21` [No. 15, reference compound]: the Emax in experiment [1] (Rattus norvegicus) was 0%. Moreover, the “effect on rat vas deferens (in words)” value in experiment [1] is listed as “effect disappears”.

With `CN(C)CC(=O)C1=CC2(CCCC2)c2ccccc21` [No. 13, reference compound], in experiment [1], the “effect on rat vas deferens (in words)” value is “inactive”. In addition, the Emax in experiment [1] (setting [5]) came out at 0%.

With “2-tert.-Butylamino-1-[spiro(cyclopentane-1,1'-indene)-3'-yl]ethanol [Example 11]”, the “max. effect, % of NA max.” value in experiment [1] (setting [5]) is on record as 90%.

Turning to `CNCC(O)C1CC2(CCCC2)c2ccccc21` (stereo not drawn) [No. 14, reference compound], the “effect on rat vas deferens (in words)” value in experiment [1] is on record as “effect disappears”. The Emax in experiment [1] (setting [5]) is 0%.

Consider `CNCC(O)C1=CC2(CCCC2)c2ccccc21` (racemic) [No. 3, 2-Methylamino-1-[spiro(cyclopentane-1,1'-indene)-3'-yl]ethanol], for which the minimal effective concentration in experiment [1] (setting [4]) was 0.03 µM. Also, in experiment [1] (setting [5]), the Emax was 100%. Besides, the EC50 was 0.15 µM in experiment [1] (setting [6]), 0.69 µM in experiment [2] and 0.045 µM in experiment [3].

As to `NCC(O)C1=CC2(CCC2)c2ccccc21` (stereo not drawn) [No. 7], the Emax in experiment [1] (setting [5]) came out at 120%. This compound gave a half-maximal effective concentration (EC50) in experiment [1] (setting [6]) of 15 µM.

For the compound `CC1(C)C=C(C(O)CN)c2ccccc21` (stereo not drawn) [No. 8, 2-Amino-1-(1,1-dimethylindene-3-yl)ethanol], the minimal effective concentration in experiment [1] (setting [4]) is 0.3 µM. In experiment [1] (setting [5]), the Emax worked out at 100%. In addition, the concentration for a half-maximal effect (EC50) in experiment [1] (setting [6]) turned out to be 2 µM.

In the case of “2-Pyrrolidino-1-[spiro)cyclopentane-1,1'-indene)-3'-yl]-ethanol [Example 5]”, the “max. effect, % of NA max.” value in experiment [1] (setting [5]) is on record as 50%. The threshold conc. in experiment [1] (setting [6]) was 10^-5 - 10^-4 M.

On to `NCC(O)C1=CC2(CCCCC2)c2ccccc21` (stereo not drawn) [No. 9, 2-Amino-1-[spiro(cyclohexane-1,1'-indene)-3'-yl]ethanol], for which, in experiment [1] (setting [4]), the minimal effective concentration was determined as 3 µM. The Emax in experiment [1] (setting [5]) worked out at 70%. Besides, the EC50 in experiment [1] (setting [6]) came to 15 µM.

Regarding `COc1ccc2c(c1)C(C(O)CN)=CC21CCCC1` (stereo not drawn) [No. 10, 2-Amino-1-[5'-methoxyspiro(cyclopentane-1,1'-indene)-3'-yl]-ethanol], in experiment [1] (setting [4]), the minimal effective concentration is 5 µM. In addition, the Emax in experiment [1] (setting [5]) stood at 65%. Moreover, the EC50 in experiment [1] (setting [6]) came out at 50 µM.

As for `NCC(O)C1=CC2(CCCC2)c2ccccc21` (stereo not drawn) [No. 2, 2-Amino-1-[spiro(cyclopentane-1,1'-indene)-3'-yl]ethanol], the minimal effective concentration in experiment [1] (setting [4]) came out at 0.1 µM. Also, in experiment [1] (setting [5]), the Emax was 100%. The compound further showed an EC50 in experiment [1] (setting [6]) of 40 µM.

With `CC(C)NCC(O)C1=CC2(CCCC2)c2ccccc21` (stereo not drawn) [No. 6], the Emax in experiment [1] (setting [5]) is 90%. This compound also registered a half-maximal effective concentration (EC50) in experiment [1] (setting [6]) of 4 µM.

`CCNCC(O)C1=CC2(CCCC2)c2ccccc21` (stereo not drawn) [No. 4, 2-Ethylamino-1-[spiro(cyclopentane-1,1'-indene)-3'-yl]ethanol]: the minimal effective concentration in experiment [1] (setting [4]) came out at 0.5 µM. For the same compound, in experiment [1] (setting [5]), the Emax worked out at 85%. The EC50 in experiment [1] (setting [6]) turned out to be 1.5 µM.

Usually EC50 stands for the midpoint of the concentration-response curve. Lower therefore signals higher potency in that assay.

Source of the values: patent publication US4218472A, “Geminally disubstituted indene derivatives” (AB Kabi, priority 1977, dated 1980).
